Measurements from patent US20130078185A1, “NITROIMIDAZOLE DERIVATIVES” (GE HEALTHCARE LIMITED, priority 2010, published 2013).
≈ marks a conversion by molar mass, not a printed value. Like-named read-outs stand apart in the source and are kept apart here.

Columns and labels:
[1] = system: Mycobacterium tuberculosis strain H37Rv; experiment: microplate alamar blue assay (MABA) MIC; type: cell-based; details: M. tuberculosis H37Rv, BACTEC 12B medium, MIC90 = 90% reduction in fluorescence relative to controls
Description: Screening was done to get MIC for M. tuberculosis using both the microplate alamar blue assay (MABA) and low-oxygen recovery assay (LORA).
The initial screen was conducted against Mycobacterium tuberculosis strain H37Rv (American Type Culture Collection number 27294) in BACTEC 12B medium (Becton-Dickinson) using the MABA. Compounds were tested in ten 2-fold dilutions, typically from 100 μg/mL to 0.19 μg/mL. The MIC90 is defined as the concentration effecting a reduction in fluorescence of 90% relative to controls. This value is determined from the dose-response curve using a curve-fitting program. Any MIC90 value of ≦10 μg/mL was considered “active” for antitubercular activity. 3(h) Method for Determining IC50

VERO cells = experiment: cells; type: cell-based, African green monkey (Cercopithecus aethiops); details: Chlorocebus sabaeus

C[C@]1(COc2ccccc2)Cn2cc([N+](=O)[O-])nc2O1 [Example 1, (R)-2-Methyl-6-nitro-2-(phenoxymethyl)-2,3-dihydroimidazo[2,1-b]oxazole]
MIC [1]: 1.33 µg/mL (≈ 4.83 µM)
IC50 (VERO cells; Vero, 72 h): > 50 µg/mL

C[C@]1(COc2ccc(I)cc2)Cn2cc([N+](=O)[O-])nc2O1 [Example 2, (R)-2-((4-Iodophenoxy)methyl)-2-methyl-6-nitro-2,3-dihydroimidazo[2,1-b]oxazole]
MIC [1]: < 0.195 µg/mL
IC50 (VERO cells; VERO cell cytotoxicity, 72 hours exposure, ATP viability readout, read-out: IC50): > 50 µg/mL
